# Reference: US6440954B1, “Inhibition of vascular smooth muscle cell proliferation” (President and Fellows of Harvard College, priority 1997, dated 2002)
# What was measured:
# RASMCs [1] = test: [3H]thymidine incorporation in RASMCs; type: cell-based, rat
# Procedure: (§1) RASMCs were harvested from the thoracic aortas of adult male Sprague-Dawley rats (200-250 g) by enzymatic dissociation as described (Tsai et al., Proc. Natl. Acad. Sci. USA 91, 6369-6373 (1994)). The cells were grown in DMEM supplemented with 10% FCS, penicillin (100 U/ml), streptomycin (100 μg/ml), glutamine ([…]), and 25 mM Hepes (pH 7.4) in a humidified incubator (37° C., 5% CO2). HASMCs (Clonetics, San Diego) were grown in M199 medium (GIBCO BRL, Grand Island, N.Y.) supplemented with 20% FCS, penicillin (100 U/ml), streptomycin (100 μg/ml), and 25 mM Hepes (pH 7.4). Cells from passages 5-9 were used. RASMCs and HASMCs were cultured in 24-well plates containing an appropriate growth medium (DMEM plus 10% FCS for RASMCs, and M199 plus 20% FCS for HASMCs). After the cells had grown to 70-80% confluence, they were rendered quiescent by incubation for 72 h in DMEM (for RASMCs) or M199 (for HASMCs) containing 0.4% charcoal/dextran-treated FCS (FIGS. 2a and 2d) or 0.4% calf serum (CS) (FIGS. 2b and 2c). Phenol red-free DMEM was used in the experiments with estradiol (FIG. 2a). […] After incubation, the cells were washed with Dulbecco's PBS, fixed in cold 10% TCA for at least 2 h, and then washed with 95% ethanol. Incorporated [^3H]thymidine was extracted in 0.2 N NaOH and measured in a liquid scintillation counter.
# [2] = tested on: cyclin A, E, B and D1 mRNAs in RASMCs; test: Northern analysis of cyclin mRNAs in RASMCs; type: cell-based, rat; settings: 24 h after treatment, FIG. 4
# Procedure: Total RNA from RASMCs was prepared from cultured RASMCs by guanidinium isothiocyanate extraction and centrifugation through cesium chloride. […] RNA samples (20 μg/lane) were electrophoresed on 1.3% formaldehyde-agarose gel, and then transferred onto nitrocellulose filters. The filters were hybridized to ^32P-labeled human cyclin probes as described (Lee et al., J. Biol. Chem. 266, 16188-16192 (1991); Lee et al., J. Biol Chem. 269, 12032-12039 (1994)). To normalize RNA content of each lane, the filters were washed at 80° C. in 50% formamide solution to remove the cyclin probes, and then hybridized with oligonucleotide probes for 28S RNA. Hybridized filters were washed in 30 mM NaCl, 3 mM sodium citrate, and 0.1% sodium dodecyl sulfate at 55° C. Radioactive signals were visualized on Kodak XAR film or PhosphorImager screens (Molecular Dynamics, Inc. Sunnyvale, Calif.).
# HASMCs = test: [3H]thymidine incorporation in HASMCs; type: cell-based, human; settings: quiescent HASMCs, 24 h incubation, FIG. 2d
# Procedure: as §1
# RASMCs [3] = test: Cell counting (RASMC proliferation); type: cell-based, rat; settings: FIG. 3b
# Procedure: RASMCs (2×10^4) were seeded onto 6-well plates and grown in DMEM supplemented with 10% FCS. […] Medium and progesterone were changed daily. Cells were counted in a Coulter apparatus at various times after their removal from the plates with trypsin-EDTA.
compound,measurement,setting,value
CC(=O)[C@H]1CC[C@H]2[C@@H]3CCC4=CC(=O)CC[C@]4(C)[C@H]3CC[C@]12C [progesterone],effect of serum (FCS) concentration on progesterone-induced inhibition of [3H]thymidine incorporation,"RASMCs [1]; RASMCs, progesterone 500 nM, FIG. 2c",counteracted by serum in a dose-dependent manner
same,effect on [3H]thymidine incorporation in RASMCs,"RASMCs [1]; quiescent RASMCs, 24 h incubation, FIG. 2a/2b",inhibited
same,cyclin A mRNA level,[2],downregulated
same,cyclin B mRNA level,[2],did not change
same,cyclin D1 mRNA level,[2],did not change
same,cyclin E mRNA level,[2],downregulated
same,effect on [3H]thymidine incorporation in HASMCs,HASMCs,dose-dependent inhibition
same,"reduction in RASMC cell growth, dose dependence",RASMCs [3],dose-dependent
